Source: patent US20080125475A1 (priority 2006, published 2008)
Like-named read-outs stand apart in the source and are kept apart here.

Experiments:
[1] = molecular target: T1, ORL1 receptor (Homo sapiens, UniProt P41146); assay: biochemical; assay type: binding
T1 construct: expressed in transfected cells; host or cells: CHO (recombinant CHO-ORL1 cells), membranes

[2] = test system: Sprague-Dawley rats; assay: animal or person; assay type: in vivo; conditions: Rattus norvegicus, iv, read-out: ED50 acute
[3] = test system: mice; conditions: mouse, in vivo
[4] = test system: Sprague-Dawley rats; assay: animal or person; assay type: in vivo, rat; conditions: iv

T1 sequence (P41146 whole entry): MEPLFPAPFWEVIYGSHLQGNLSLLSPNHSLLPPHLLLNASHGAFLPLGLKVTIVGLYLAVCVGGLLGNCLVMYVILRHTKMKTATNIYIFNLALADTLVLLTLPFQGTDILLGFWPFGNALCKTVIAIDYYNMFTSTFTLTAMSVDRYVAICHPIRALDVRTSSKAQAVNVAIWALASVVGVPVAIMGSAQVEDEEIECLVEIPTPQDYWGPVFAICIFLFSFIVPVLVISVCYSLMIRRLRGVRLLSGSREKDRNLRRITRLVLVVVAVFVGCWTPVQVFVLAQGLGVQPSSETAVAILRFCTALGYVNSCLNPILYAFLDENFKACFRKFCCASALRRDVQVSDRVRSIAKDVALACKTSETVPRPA

CCC(=O)C(C[C@@H](C)N(C)C)(c1ccccc1)c1ccccc1 [Compound B7, L-methadone]
Ki [1]: > 1000 nM
ED50 [2]: 0.21 mg/kg
naloxone-induced withdrawal jumping [3]: reduced in comparison with B1-B4 but is still significant
ED50 ([4]; Rattus norvegicus, read-out: ED50 chronic): 0.49 mg/kg
Enhancement of action factor ([4]; rat, in vivo): 0.4x
